Reference: patent publication US20150202313A1, “Macromolecular Prodrugs for Hard Tissue and Methods of Use Thereof” (New York Society for The Ruptured and Crippled Maintaining …, priority 2012, published 2015)

Tests used:
[1] = test system: open fracture mouse model (femoral shaft fracture); test: Therapeutic efficacy in open fracture mouse model, micro-CT analysis of callus; type: in vivo, Swiss Webster mice
Experimental: Ten-week-old male Swiss Webster mice were purchased from Charles River Laboratories, and maintained under standard housing conditions. The animals were acclimated for at least 1 week before any experimental procedure. Under general anesthesia with isoflurane, the hips, thighs, and knees on the right side of the animal were prepared with Betadine (povidone-iodine) solution. A 1.0 cm right medial parapatellar incision was made on the right knee. The patella was dislocated laterally to expose the femoral condyles. A 25-guage needle was introduced into the canal and driven in a retrograde intramedullary fashion to the level of the greater trochanter. Distally, the needle was cut flush with the cortex (length was about 1.4 cm) so as not to interfere with motion of the knee. […] Postoperatively, mice were placed on clean paper towels in their cages (to avoid inhalation/aspiration of the bedding material) and monitored until the animals were fully awake. The mice were monitored for signs of pain with analgesia and antibiotics given according to established protocol. […]
For the quantitative analysis, we specifically focused on the site of fracture callus formation. […] The following parameters were measured and calculated: callus volume (Cl.V), callus thickness (Cl.Th), callus separation (Cl.Sp) and the ratio of callus surface to volume (Cl.S/Cl.V). […]

[2] = test system: open fracture mouse model (femoral shaft fracture); test: Therapeutic efficacy in open fracture mouse model, Safranin O histology of callus; type: in vivo, Swiss Webster mice; settings: 21 days post fracture
Experimental: Ten-week-old male Swiss Webster mice were purchased from Charles River Laboratories, and maintained under standard housing conditions. The animals were acclimated for at least 1 week before any experimental procedure. Under general anesthesia with isoflurane, the hips, thighs, and knees on the right side of the animal were prepared with Betadine (povidone-iodine) solution. A 1.0 cm right medial parapatellar incision was made on the right knee. The patella was dislocated laterally to expose the femoral condyles. A 25-guage needle was introduced into the canal and driven in a retrograde intramedullary fashion to the level of the greater trochanter. Distally, the needle was cut flush with the cortex (length was about 1.4 cm) so as not to interfere with motion of the knee. Controlled unilateral transverse femoral shaft fractures were created with a #15 blade. […] Postoperatively, mice were placed on clean paper towels in their cages (to avoid inhalation/aspiration of the bedding material) and monitored until the animals were fully awake. The mice were monitored for signs of pain with analgesia and antibiotics given according to established protocol. […]
After micro-CT analysis, the fractured femurs were decalcified using 14% EDTA at room temperature for 30 days. […] The specimens were then paraffin embedded, sectioned (5 μm thickness), stained with Safranin 0 and histologically evaluated.

[3] = Weight loss side effect during treatment; settings: in vivo
Source text: Eighteen 10-week-old male Swiss Webster mice were osteotomized and randomly assigned into three groups (6 mice/group). […] The overall SIM doses given to the SIMA and SIM/SIM-mPEG were equivalent. All mice were euthanized 21 days post osteotomy.

SMILES: CCC(C)(C)C(=O)O[C@H]1C[C@@H](C)C=C2C=C[C@H](C)[C@H](CC[C@@H](O)C[C@@H](O)CC(=O)O)[C@H]21 [SIMA, simvastatin acid]
- quantitative morphometric indices of callus (micro-CT), comparison with CON ([1]; 21 days post osteotomy, SIMA equiv. SIM 6 mg/kg/day i.p., micelles equiv. SIM 42 mg/kg/wk i.v.): No statistical significance
- mineralization of the fracture callus (micro-CT images) ([1]; 21 days post-fracture): less mineralized callus formation at the fracture site
- histological features of callus sections (Safranin O) [2]: intermediate stage between CON and SIM/SIM-mPEG groups
- side effect of weight loss [3]: weight loss observed
